Where “and” joins values, the source holds several entries; their conditions need not be identical. Equal values may be shown once.
Legend:
[1] = molecular target: NEK2 (Homo sapiens, UniProt P51955); test: Nanosyn kinase profiling, mobility shift assay; conditions: read-out: % inhibition by neratinib
[2] = molecular target: PRKD2 (Homo sapiens, UniProt Q9BZL6); test: Nanosyn kinase profiling, mobility shift assay; conditions: read-out: % inhibition by neratinib
[3] = system: isolated islets from WT mice; test: β-cell apoptosis (TUNEL/insulin) under diabetogenic conditions, WT islets
[4] = system: isolated islets from WT C57Bl/6 mice; test: β-cell apoptosis (TUNEL), WT islets, IL-1β/IFNγ 72 h, neratinib added for last 24 h; type: cell-based, mouse; conditions: for TUNEL%: Cytokines+Nera
[5] = molecular target: MAPKAPK-2 (Homo sapiens, UniProt P49137); test: Nanosyn kinase profiling, mobility shift assay; conditions: read-out: % inhibition by neratinib
[6] = molecular target: JAK2 (Homo sapiens, UniProt O60674); test: Nanosyn kinase profiling, mobility shift assay; conditions: read-out: % inhibition by neratinib
[7] = system: obese diabetic Lepr db/db mice; test: db/db model: β-cell proliferation (Ki67); type: in vivo, mouse; conditions: dbdb mice
[8] = molecular target: GSK-3-BETA (Homo sapiens, UniProt P49841); test: Nanosyn kinase profiling, mobility shift assay; conditions: read-out: % inhibition by neratinib
[9] = system: MST1–LATS2 signaling; test: Western blot of YAP-S127 phosphorylation (MST1/LATS2 overexpression); conditions: 10 μM, last 24 h
[10] = system: MLD–STZ C57BL/6J mice; test: MLD–STZ model: β-cell apoptosis (TUNEL); type: in vivo, mouse
Protocol: C57Bl/6J mice were injected with 40 mg/kg streptozotocin or citrate buffer for 5 consecutive days. […] In d, basal glucose values were normalized to 100%. e Insulin secretion measured from retro-orbital blood draw during an ipGTT measured before (0 min) and 15 min after glucose injection; data are expressed as the ratio of secreted insulin at 15 min/0 min (stimulatory index). f The ratio of secreted insulin and glucose is calculated at fed state. g–i Mice were killed at day 35. g β-cell mass (given as percentage of the whole pancreatic section from ten sections spanning the width of the pancreas) and quantitative analyses from triple staining for h TUNEL or i Ki67, insulin, and DAPI expressed as percentage of TUNEL- or Ki67-positive β-cells ±SEM. An average number of 2331 (h), or 26369 (i) β-cells were counted. n = 9 mice/group for (a); n = 4–12 for (b); n = 5–15 for (c) and (d); n = 12–19 for (e); n = 8–14 for (f); n = 4–9 for (g); n = 4–11 for (h); and n = 6–11 mice/groupfor (i); all from three independent experiments).
Mouse pancreases were dissected and fixed in 4% formaldehyde at 4 °C for 12 h before embedding in paraffin[62]. Two-four-micrometer sections were deparaffinized, rehydrated, and incubated overnight at 4 °C with anti-PDX-1 (Abcam; #47267), anti-Glut2 (Chemicon; #07-1402), anti-Ki67 (Dako; #M7249), anti-phospho-Histone H3 (Ser10; Merck #06-570), and anti-NKX6.1 (DSHB, University of Iowa #F55A12[66]) in combination with TSA (Invitrogen #T30955), or for 2 h at room temperature with anti-insulin (Dako; A0546) antibodies (all at a dilution of 1:100, except anti-PDX-1, which was diluted 1:400) followed by fluorescein isothiocyanate (FITC)- or Cy3-conjugated secondary antibodies (Jackson ImmunoResearch Laboratories, West Grove, PA). Slides were mounted with Vectashield with 4′6-diamidino-2-phenylindole (DAPI) (Vector Labs). β-cell apoptosis was analyzed by the terminal deoxynucleotidyl transferase-mediated dUTP nick-end labeling (TUNEL) technique according to the manufacturer’s instructions (In Situ Cell Death Detection Kit, TMR red; Roche) and double stained for insulin. Fluorescence was analyzed by using a Nikon MEA53200 (Nikon GmbH, Dusseldorf, Germany) microscope, and images were acquired by using NIS-Elements software (Nikon).

[11] = molecular target: P38-ALPHA (Homo sapiens, UniProt Q16539); test: Nanosyn kinase profiling, mobility shift assay; conditions: read-out: % inhibition by neratinib
[12] = molecular target: PDGFR-ALPHA (Homo sapiens, UniProt P16234); test: Nanosyn kinase profiling, mobility shift assay; conditions: read-out: % inhibition by neratinib
[13] = molecular target: ABL1 (Homo sapiens, UniProt P00519); test: Nanosyn kinase profiling, mobility shift assay; conditions: read-out: % inhibition by neratinib
[14] = molecular target: MAPK1 (Homo sapiens, UniProt P28482); test: Nanosyn kinase profiling, mobility shift assay; conditions: read-out: % inhibition by neratinib
[15] = molecular target: PYK2 (Homo sapiens, UniProt Q14289); test: Nanosyn kinase profiling, mobility shift assay; conditions: read-out: % inhibition by neratinib
[16] = system: panel of 50 serine, threonine, and tyrosine kinases; test: Nanosyn panel of 50 biochemical kinase assays; conditions: 10 µM, of 50 kinases
[17] = molecular target: EPH-A2 (Homo sapiens, UniProt P29317); test: Nanosyn kinase profiling, mobility shift assay; conditions: read-out: % inhibition by neratinib

Chain of GSK-3-BETA (P49841 whole entry): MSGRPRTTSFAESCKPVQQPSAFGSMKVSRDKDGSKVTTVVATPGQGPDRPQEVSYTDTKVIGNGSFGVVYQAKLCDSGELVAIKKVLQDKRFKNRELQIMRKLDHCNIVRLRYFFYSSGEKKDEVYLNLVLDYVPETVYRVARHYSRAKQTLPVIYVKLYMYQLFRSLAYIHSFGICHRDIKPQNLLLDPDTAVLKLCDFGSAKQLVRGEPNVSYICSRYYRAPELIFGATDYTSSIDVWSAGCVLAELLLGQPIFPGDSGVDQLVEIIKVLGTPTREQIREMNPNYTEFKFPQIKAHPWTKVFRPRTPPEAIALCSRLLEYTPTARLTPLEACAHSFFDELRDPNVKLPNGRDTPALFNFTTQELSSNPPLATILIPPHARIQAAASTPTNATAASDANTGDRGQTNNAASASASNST
Chain of PRKD2 (Q9BZL6 whole entry): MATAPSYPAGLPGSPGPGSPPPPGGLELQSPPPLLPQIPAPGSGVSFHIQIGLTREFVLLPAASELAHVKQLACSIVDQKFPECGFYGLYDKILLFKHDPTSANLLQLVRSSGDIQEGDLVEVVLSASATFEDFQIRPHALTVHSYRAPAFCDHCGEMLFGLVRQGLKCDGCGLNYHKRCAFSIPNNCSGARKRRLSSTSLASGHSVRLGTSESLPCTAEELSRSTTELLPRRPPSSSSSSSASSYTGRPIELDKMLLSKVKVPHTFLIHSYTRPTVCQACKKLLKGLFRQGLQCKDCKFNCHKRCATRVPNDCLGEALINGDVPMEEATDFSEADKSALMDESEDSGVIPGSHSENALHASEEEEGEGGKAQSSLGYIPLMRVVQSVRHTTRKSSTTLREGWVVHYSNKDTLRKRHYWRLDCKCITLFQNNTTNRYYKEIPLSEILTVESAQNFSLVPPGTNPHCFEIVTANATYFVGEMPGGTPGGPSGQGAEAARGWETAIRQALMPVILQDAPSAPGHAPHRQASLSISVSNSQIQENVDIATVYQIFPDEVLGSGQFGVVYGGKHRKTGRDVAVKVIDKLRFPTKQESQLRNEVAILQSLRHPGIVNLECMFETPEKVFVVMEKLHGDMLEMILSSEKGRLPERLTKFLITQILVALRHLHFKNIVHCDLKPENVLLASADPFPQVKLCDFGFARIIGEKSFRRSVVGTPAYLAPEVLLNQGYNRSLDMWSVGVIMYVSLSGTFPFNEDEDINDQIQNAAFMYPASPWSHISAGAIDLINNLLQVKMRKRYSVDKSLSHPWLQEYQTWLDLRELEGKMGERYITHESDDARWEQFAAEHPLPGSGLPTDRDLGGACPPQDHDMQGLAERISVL
Chain of NEK2 (P51955 whole entry): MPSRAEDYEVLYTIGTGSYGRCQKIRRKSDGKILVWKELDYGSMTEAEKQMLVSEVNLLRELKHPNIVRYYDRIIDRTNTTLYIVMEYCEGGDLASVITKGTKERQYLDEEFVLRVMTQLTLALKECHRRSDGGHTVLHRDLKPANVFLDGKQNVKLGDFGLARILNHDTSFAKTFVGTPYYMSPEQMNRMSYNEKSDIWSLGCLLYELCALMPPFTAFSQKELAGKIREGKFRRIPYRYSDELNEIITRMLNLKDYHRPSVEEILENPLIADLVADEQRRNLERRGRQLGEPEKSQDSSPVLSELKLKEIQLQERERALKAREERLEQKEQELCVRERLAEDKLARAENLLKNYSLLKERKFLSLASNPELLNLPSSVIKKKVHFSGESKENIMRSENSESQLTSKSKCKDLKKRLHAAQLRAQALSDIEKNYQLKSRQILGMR
Chain of PDGFR-ALPHA (P16234 24-1089): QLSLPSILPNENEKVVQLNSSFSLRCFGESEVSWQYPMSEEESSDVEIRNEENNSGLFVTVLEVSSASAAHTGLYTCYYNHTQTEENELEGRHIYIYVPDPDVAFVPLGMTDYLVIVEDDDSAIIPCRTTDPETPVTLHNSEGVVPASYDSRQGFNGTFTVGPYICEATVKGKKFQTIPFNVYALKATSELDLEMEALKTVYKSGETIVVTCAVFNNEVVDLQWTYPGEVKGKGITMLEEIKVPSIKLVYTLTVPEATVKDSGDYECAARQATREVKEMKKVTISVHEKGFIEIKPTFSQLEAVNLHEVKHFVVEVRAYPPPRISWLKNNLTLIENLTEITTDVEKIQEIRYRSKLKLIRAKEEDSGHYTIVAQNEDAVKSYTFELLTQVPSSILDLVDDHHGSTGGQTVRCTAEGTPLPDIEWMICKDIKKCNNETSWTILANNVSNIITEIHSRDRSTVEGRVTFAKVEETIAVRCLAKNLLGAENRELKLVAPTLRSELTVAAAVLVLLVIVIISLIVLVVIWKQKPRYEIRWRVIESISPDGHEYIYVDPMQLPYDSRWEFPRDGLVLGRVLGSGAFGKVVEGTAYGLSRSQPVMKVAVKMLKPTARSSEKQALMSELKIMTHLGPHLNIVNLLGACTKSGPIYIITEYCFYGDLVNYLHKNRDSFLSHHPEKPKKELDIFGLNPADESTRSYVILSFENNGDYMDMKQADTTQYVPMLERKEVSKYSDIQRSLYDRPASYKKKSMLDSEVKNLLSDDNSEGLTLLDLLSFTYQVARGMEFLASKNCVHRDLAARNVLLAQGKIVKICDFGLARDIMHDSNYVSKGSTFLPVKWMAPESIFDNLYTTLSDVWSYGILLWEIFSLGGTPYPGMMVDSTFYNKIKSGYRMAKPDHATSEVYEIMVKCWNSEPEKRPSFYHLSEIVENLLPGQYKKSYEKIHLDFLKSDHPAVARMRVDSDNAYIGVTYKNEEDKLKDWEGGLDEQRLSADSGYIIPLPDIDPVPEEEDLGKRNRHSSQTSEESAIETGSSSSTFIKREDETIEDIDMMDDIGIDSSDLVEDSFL
Chain of PYK2 (Q14289 whole entry): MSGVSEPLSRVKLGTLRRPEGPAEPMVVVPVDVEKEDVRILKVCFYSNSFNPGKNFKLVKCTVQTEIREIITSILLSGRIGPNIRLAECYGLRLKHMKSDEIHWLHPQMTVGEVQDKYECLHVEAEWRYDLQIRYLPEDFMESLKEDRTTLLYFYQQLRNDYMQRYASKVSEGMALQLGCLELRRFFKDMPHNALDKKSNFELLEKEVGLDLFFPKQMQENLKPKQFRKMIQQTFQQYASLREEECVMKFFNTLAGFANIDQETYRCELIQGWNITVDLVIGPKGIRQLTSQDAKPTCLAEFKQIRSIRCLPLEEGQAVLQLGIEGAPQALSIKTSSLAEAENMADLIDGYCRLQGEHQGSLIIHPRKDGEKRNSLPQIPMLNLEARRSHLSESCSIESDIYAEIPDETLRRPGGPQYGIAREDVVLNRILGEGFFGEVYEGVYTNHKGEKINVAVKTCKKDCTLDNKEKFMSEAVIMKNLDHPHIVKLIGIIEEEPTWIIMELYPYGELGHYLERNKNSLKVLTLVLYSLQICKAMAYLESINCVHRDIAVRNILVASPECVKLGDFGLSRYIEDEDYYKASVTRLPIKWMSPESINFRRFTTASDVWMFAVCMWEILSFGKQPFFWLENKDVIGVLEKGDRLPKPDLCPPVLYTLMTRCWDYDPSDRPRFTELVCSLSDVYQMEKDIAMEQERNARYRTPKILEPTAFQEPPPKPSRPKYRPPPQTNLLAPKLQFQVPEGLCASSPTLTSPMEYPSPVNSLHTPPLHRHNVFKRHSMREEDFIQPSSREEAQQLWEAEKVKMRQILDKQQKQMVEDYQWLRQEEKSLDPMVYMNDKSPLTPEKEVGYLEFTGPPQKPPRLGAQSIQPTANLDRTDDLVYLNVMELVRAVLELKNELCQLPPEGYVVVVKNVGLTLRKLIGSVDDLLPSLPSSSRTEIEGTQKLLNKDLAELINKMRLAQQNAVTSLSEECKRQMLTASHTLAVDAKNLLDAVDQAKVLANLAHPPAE
Chain of MAPKAPK-2 (P49137 whole entry): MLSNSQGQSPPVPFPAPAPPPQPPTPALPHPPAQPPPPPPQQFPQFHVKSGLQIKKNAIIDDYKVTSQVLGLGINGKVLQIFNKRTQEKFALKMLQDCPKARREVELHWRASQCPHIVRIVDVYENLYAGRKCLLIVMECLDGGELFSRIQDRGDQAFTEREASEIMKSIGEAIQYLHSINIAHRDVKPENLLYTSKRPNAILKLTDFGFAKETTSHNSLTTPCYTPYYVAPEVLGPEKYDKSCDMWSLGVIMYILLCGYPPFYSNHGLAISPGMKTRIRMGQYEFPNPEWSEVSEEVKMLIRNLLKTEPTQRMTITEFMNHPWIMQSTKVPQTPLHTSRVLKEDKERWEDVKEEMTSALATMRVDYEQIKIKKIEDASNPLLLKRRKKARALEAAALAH
Chain of MAPK1 (P28482 whole entry): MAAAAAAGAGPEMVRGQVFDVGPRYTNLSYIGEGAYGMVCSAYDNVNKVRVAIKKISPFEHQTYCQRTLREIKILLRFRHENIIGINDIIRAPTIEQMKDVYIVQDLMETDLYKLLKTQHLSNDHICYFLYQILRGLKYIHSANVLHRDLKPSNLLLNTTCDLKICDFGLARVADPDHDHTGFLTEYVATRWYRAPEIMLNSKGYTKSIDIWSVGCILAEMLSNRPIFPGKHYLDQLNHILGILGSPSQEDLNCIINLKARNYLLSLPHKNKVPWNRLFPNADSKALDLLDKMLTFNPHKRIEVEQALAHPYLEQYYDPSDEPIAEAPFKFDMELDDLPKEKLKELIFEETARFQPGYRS
Chain of P38-ALPHA (Q16539 whole entry): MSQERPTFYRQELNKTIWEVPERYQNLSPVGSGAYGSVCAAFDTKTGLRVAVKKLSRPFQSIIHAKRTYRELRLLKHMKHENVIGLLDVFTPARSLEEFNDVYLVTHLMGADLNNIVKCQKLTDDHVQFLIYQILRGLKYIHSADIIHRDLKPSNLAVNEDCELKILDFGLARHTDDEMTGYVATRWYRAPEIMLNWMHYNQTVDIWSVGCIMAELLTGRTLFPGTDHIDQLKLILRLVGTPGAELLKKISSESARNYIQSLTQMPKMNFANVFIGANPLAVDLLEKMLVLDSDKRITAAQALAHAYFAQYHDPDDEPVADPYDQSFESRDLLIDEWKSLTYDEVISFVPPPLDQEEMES

In the case of CCOc1cc2ncc(C#N)c(Nc3ccc(OCc4ccccn4)c(Cl)c3)c2cc1NC(=O)/C=C/CN(C)C [neratinib], the inhibition at 10 µM [1] is reported as 68%, the inhibition at 10 µM [2] is reported as 71% and the “cytokine- and glucolipotoxicity-induced apoptosis in WT islets” value ([3]; 10 μM, 72 h) is reported as “reduced cytokine- and glucolipotoxicity-induced apoptosis”. For the same molecule, the “mean TUNEL/isolation/%” value ([3]; WT HG/Pal Nera 10 μM 72 h, mean) was 370.621%, the “mean TUNEL/isolation/%” value ([3]; WT HG/Pal Nera 10 μM 72 h, single isolations, WT untreated = 100) was 424.349% and 323.811% and 387.381% and 346.941% and the “mean TUNEL/isolation/%” value ([3]; WT ILIF Nera 10 μM 72 h, mean) was 814.399%. The TUNEL% ([4]; MEAN) was 0.4111%, the TUNEL% ([4]; individual replicates) was 0.4072% and 0.3399% and 0.4861% and the “β-cell survival after cytokine-induced apoptosis” value ([4]; IL-1β/IFNγ 48 h, then 10 μM neratinib another 24 h) was “fully restored β-cell survival”. The inhibition at 10 µM [5] was 7%, the inhibition at 10 µM [6] was 18% and the Ki67%/ mouse ([7]; Mean) was 1.047%. The Ki67%/ mouse ([7]; individual mice) was 0.4896% and 1.365% and 0.6515% and 1.681%, the inhibition at 10 µM [8] was 23% and the “MST1/LATS2-induced YAP-S127 phosphorylation” value [9] was “strongly inhibited”. The TUNEL%/ mouse ([10]; NeraCtr group (no STZ), MEAN) was 0.08333%, the TUNEL%/ mouse ([10]; NeraCtr group (no STZ), individual mice) was 0.3333% and 0% and the TUNEL%/ mouse ([10]; NeraSTZ group, MEAN) was 0.24%. For the same molecule, the TUNEL%/ mouse ([10]; NeraSTZ group, individual mice) was 0% and 0.2857% and 1.2987% and 0.3546% and 0.7008%, the β-cell apoptosis ([10]; STZ mice, day 35) was “reduced β-cell apoptosis” and the inhibition at 10 µM [11] was 15%. The inhibition at 10 µM [12] was 31%, the inhibition at 10 µM [13] was 36% and the inhibition at 10 µM [14] was 12%. For the same molecule, the inhibition at 10 µM [15] was 41%, the “number of kinases with >50% of inhibition” value [16] was 16 and the inhibition at 10 µM [17] was 51%.

Source: PMC6825211 (Nature Communications, 2019)
